The values that follow come from US11267826B2, “Penicillin-binding protein inhibitors” (priority 2017, dated 2022).

Read-outs that look alike come from different tables or passages of the source.

Assay [1] concerns hyper-permeable E. coli 901C. The experiment in a line: Broth microdilution MIC assay, hyper-permeable E. coli. The format is cell-based. To be noted: for MIC: Escherichia coli, read-out: E. coli 901C MIC. How it is done:
(§1) To determine the ability of test compounds to potentiate the inhibition of the growth of bacterial strains, classic cell based broth microdilution MIC assays were employed. MIC assays are performed according to CLSI methods except where otherwise noted (CLSI, 2011 and CLSI, 2009). The reference strain S. aureus ATCC 29213 and the hyper-permeable E. coli 901C were used to determine the ability of the PBP compounds to inhibit bacterial growth. Briefly, cryo-preserved bacterial cultures of clinical strains are streaked for isolation on appropriate agar medium, in this case Mueller Hinton II agar. Following incubation to allow formation of colonies these plates are sealed with parafilm and stored refrigerated for up to two weeks. For preparation of assay inocula and to ensure low variability, at least 5 colonies are picked from the agar plates with an inoculating loop and aseptically transferred to a culture tube containing 3 mL of Mueller-Hinton Broth (supplemented with divalent cations to required levels based on Manufacturers' certification). The broth culture is grown for 3-5 hours at 37° C. with shaking at 200 rpm. Meanwhile, 2-fold serial dilutions of test compounds are conducted in a 96 well plate with a final volume of 75 μL per well at 2-fold the final desired concentration. After the dilution plates are set up the growing cultures are then diluted in a cuvette containing MH II broth and the optical density is measured at 600 nm. Inocula are diluted such that 75 μL of this culture in Mueller-Hinton Broth results in a starting bacterial concentration of 5×10^5 CFU/mL when added to the dilution plates. The plates are incubated 16-20 hours at 37° C. The MIC is read visually as the lowest concentration well with no bacterial growth.
On the technique in general: Dilution methods test growth across graded concentrations, often in twofold steps.

In assay [2] the test system is S. aureus ATCC 29213. Description: Broth microdilution MIC assay, S. aureus. The format is cell-based. As to conditions: for MIC: Staphylococcus aureus. How it is done:
as §1

[3] abbreviates: ATCC29213, broth microdilution, 16-20 hours at 37° C., read-out: S. aureus 29213 MIC.
Where [4] appears, read: broth microdilution, 16-20 hours at 37° C.

Turning to `O=C(N[C@H]1Cc2cccc(C(=O)O)c2OB1O)/C(=N/O)c1csc(NCCc2ccncc2)n1` [Example 124, (R,E)-2-hydroxy-3-(2-(hydroxyimino)-2-(2-((2-(pyridin-4-yl)ethyl)amino)thiazol-4-yl)acetamido)-3,4-dihydro-2H-benzo[e][1,2]oxaborinine-8-carboxylic Acid], the MIC in assay [1] and in assay [2] (setting [3]) was above 128 µg/mL throughout.
With `Nc1nc(C(=NO)C(=O)NC2Cc3cccc(C(=O)O)c3OB2O)ns1` (stereo in doubt) [Example 20, (S,Z)-3-(2-(5-amino-1,2,4-thiadiazol-3-yl)-2-(hydroxyimino)acetamido)-2-hydroxy-3,4-dihydro-2H-benzo[e][1,2]oxaborinine-8-carboxylic Acid], the MIC in assay [1] and in assay [2] (setting [3]) was above 128 µg/mL in each case.
On to `CCNc1nc(/C(=N/O)C(=O)N[C@H]2Cc3cccc(C(=O)O)c3OB2O)cs1` [Example 107, (R,Z)-3-(2-(2-(ethylamino)thiazol-4-yl)-2-(hydroxyimino)acetamido)-2-hydroxy-3,4-dihydro-2H-benzo[e][1,2]oxaborinine-8-carboxylic Acid], for which the minimal inhibitory concentration (MIC) in assay [1] and in assay [2] (setting [3]) was above 128 µg/mL in each case.
With `CC(C)CO/N=C(\C(=O)N[C@H]1Cc2cccc(C(=O)O)c2OB1O)c1csc(N)n1` [Example 100, (R,Z)-3-(2-(2-aminothiazol-4-yl)-2-(isobutoxyimino)acetamido)-2-hydroxy-3,4-dihydro-2H-benzo[e][1,2]oxaborinine-8-carboxylic Acid], the MIC in assay [1] and in assay [2] (setting [3]) was below 64 µg/mL throughout.
As to `Nc1nc(/C(=N/O)C(=O)N[C@@H]2Cc3cccc(C(=O)O)c3OB2O)cs1` [Example 9, (S,Z)-3-(2-(2-aminothiazol-4-yl)-2-(hydroxyimino)acetamido)-2-hydroxy3,4-dihydro-2H-benzo[e][1,2]oxaborinine-8-carboxylic Acid], the minimal inhibitory concentration (MIC) in assay [1] and in assay [2] (setting [3]) was above 128 µg/mL each time.
Take `O=C(N[C@H]1Cc2cccc(C(=O)O)c2OB1O)/C(=N\O)c1csc(NCCO)n1` [Example 102, (R,Z)-2-hydroxy-3-(2-(2-((2-hydroxyethyl)amino)thiazol-4-yl)-2-(hydroxyimino)acetamido)-3,4-dihydro-2H-benzo[e][1,2]oxaborinine-8-carboxylic Acid]: the MIC in assay [1] and in assay [2] (setting [3]) was above 128 µg/mL throughout.
As to `CNc1nc(/C(=N/O)C(=O)N[C@H]2Cc3cccc(C(=O)O)c3OB2O)cs1` [Example 106, (R,Z)-2-hydroxy-3-(2-(hydroxyimino)-2-(2-(methylamino)thiazol-4-yl)acetamido)-3,4-dihydro-2H-benzo[e][1,2]oxaborinine-8-carboxylic Acid], the minimal inhibitory concentration (MIC) in assay [1] and in assay [2] (setting [3]) was above 128 µg/mL in each case.
For `CC(O/N=C(\C(=O)N[C@H]1Cc2cccc(C(=O)O)c2OB1O)c1csc(N)n1)C(=O)NCCNCCN` (stereo partly drawn) [Example 104, (3R)-3-((Z)-12-amino-2-(2-aminothiazol-4-yl)-5-methyl-6-oxo-4-oxa-3,7,10-triazadodec-2-enamido)-2-hydroxy-3,4-dihydro-2H-benzo[e][1,2]oxaborinine-8-carboxylic Acid], the MIC in assay [1] was below 64 µg/mL; in assay [2] (ATCC29213, read-out: S. aureus 29213 MIC), above 128 µg/mL.
For the compound `NCCNc1nc(/C(=N/O)C(=O)N[C@H]2Cc3cccc(C(=O)O)c3OB2O)cs1` [Example 10, (R,Z)-3-(2-(2-((2-aminoethyl)amino)thiazol-4-yl)-2-(hydroxyimino)acetamido)-2-hydroxy-3,4-dihydro-2H-benzo[e][1,2]oxaborinine-8-carboxylic Acid], the MIC was above 128 µg/mL in assay [1] and 64 to 128 µg/mL in assay [2] (setting [3]).
For `Nc1cc(/C(=N/O)C(=O)N[C@H]2Cc3cccc(C(=O)O)c3OB2O)ccn1` [Example 14, (R,Z)-3-(2-(2-aminopyridin-4-yl)-2-(hydroxyimino)acetamido)-2-hydroxy-3,4-dihydro-2H-benzo[e][1,2]oxaborinine-8-carboxylic Acid], the minimum inhibitory concentration (MIC) in assay [1] was above 128 µg/mL; in assay [2] (setting [3]) it was below 64 µg/mL.
In the case of `O=C(N[C@H]1Cc2cccc(C(=O)O)c2OB1O)/C(=N\O)c1csc(NCc2ccccn2)n1` [Example 121, (R,Z)-2-hydroxy-3-(2-(hydroxyimino)-2-(2-((pyridin-2-ylmethyl)amino)thiazol-4-yl)acetamido)-3,4-dihydro-2H-benzo[e][1,2]oxaborinine-8-carboxylic Acid], the figures for the minimal inhibitory concentration (MIC) in assay [1] and in assay [2] (setting [3]) were above 128 µg/mL and below 64 µg/mL, respectively.
On to `Nc1nc(/C(=N/OC2CCNCC2)C(=O)N[C@H]2Cc3cccc(C(=O)O)c3OB2O)cs1` [Example 51, (R,Z)-3-(2-(2-aminothiazol-4-yl)-2-((piperidin-4-yloxy)imino)acetamido)-2-hydroxy-3,4-dihydro-2H-benzo[e][1,2]oxaborinine-8-carboxylic Acid], for which the minimum inhibitory concentration (MIC) is 64 to 128 µg/mL in assay [1] and above 128 µg/mL in assay [2] (setting [3]).
The matching figures for `Nc1nc(/C(=N/OCCO)C(=O)N[C@H]2Cc3cccc(C(=O)O)c3OB2O)cs1` [Example 13, (R,Z)-3-(2-(2-aminothiazol-4-yl)-2-((2-hydroxyethoxy)imino)acetamido)-2-hydroxy-3,4-dihydro-2H-benzo[e][1,2]oxaborinine-8-carboxylic Acid]: above 128 µg/mL and 64 to 128 µg/mL.
Regarding `Nc1nc(/C(=N/O)C(=O)N[C@H]2Cc3ccc(/C=C/C(=O)O)c(C(=O)O)c3OB2O)cs1` [Example 27, (R)-3-((Z)-2-(2-aminothiazol-4-yl)-2-(hydroxyimino)acetamido)-7-((E)-2-carboxyvinyl)-2-hydroxy-3,4-dihydro-2H-benzo[e][1,2]oxaborinine-8-carboxylic Acid], the minimum inhibitory concentration (MIC) in assay [1] was 64 to 128 µg/mL; in assay [2] (setting [3]) it was above 128 µg/mL.
On to `CC(=O)NCCO/N=C(\C(=O)N[C@H]1Cc2cccc(C(=O)O)c2OB1O)c1csc(N)n1` [Example 119, (R,Z)-3-(2-((2-acetamidoethoxy)imino)-2-(2-aminothiazol-4-yl)acetamido)-2-hydroxy-3,4-dihydro-2H-benzo[e][1,2]oxaborinine-8-carboxylic Acid], for which the minimum inhibitory concentration (MIC) in assay [1] was 64 to 128 µg/mL; in assay [2] (setting [3]) it was above 128 µg/mL.
`O=C(N[C@H]1Cc2cccc(C(=O)O)c2OB1O)/C(=N\O)c1ccc2c(c1)CNC2` [Example 8, (R,Z)-2-hydroxy-3-(2-(hydroxyimino)-2-(isoindolin-5-yl)acetamido)-3,4-dihydro-2H-benzo[e][1,2]oxaborinine-8-carboxylic Acid]: the minimal inhibitory concentration (MIC) in assay [1] and in assay [2] (setting [3]) was below 64 µg/mL throughout.
Consider `CO/N=C(\C(=O)N[C@H]1Cc2cccc(C(=O)O)c2OB1O)c1cccnc1` [Example 4, (R,Z)-2-hydroxy-3-(2-(methoxyimino)-2-(pyridin-3-yl)acetamido)-3,4-dihydro-2H-benzo[e][1,2]oxaborinine-8-carboxylic Acid], for which the MIC in assay [1] is above 128 µg/mL; in assay [2] (setting [3]) it was 64 to 128 µg/mL.
As for `Nc1ncc(C(=NO)C(=O)N[C@H]2Cc3cccc(C(=O)O)c3OB2O)s1` (stereo in doubt) [Example 95, (R,Z)-3-(2-(2-aminothiazol-5-yl)-2-(hydroxyimino)acetamido)-2-hydroxy-3,4-dihydro-2H-benzo[e][1,2]oxaborinine-8-carboxylic Acid], the MIC was above 128 µg/mL in assay [1] and below 64 µg/mL in assay [2] (setting [3]).
For `Cc1cc(C)n2c1C=C1C=CC(CCC(=O)NCCON=C(C(=O)N[C@H]3Cc4cccc(C(=O)O)c4OB3O)c3csc(N)n3)=[N+]1[B-]2(F)F` [Example 125, (R)-3-(2-(2-aminothiazol-4-yl)-2-((2-(3-(5,5-difluoro-7,9-dimethyl-5H-4λ^4,5λ^4-dipyrrolo[1,2-c:2′,1′-f][1,3,2]diazaborinin-3-yl)propanamido)ethoxy)imino)acetamido)-2-hydroxy-3,4-dihydro-2H-benzo[e][1,2]oxaborinine-8-carboxylic Acid], the “E. coli 901C MIC” value in assay [1] (setting [4]) is listed as “A (A represents an MIC >128 μg/mL)”. For the same compound, in assay [2] (setting [4]), the “S. aureus 29213 MIC” value is “A (A represents an MIC >128 μg/mL)”.
Regarding `CO/N=C(/C(=O)N[C@H]1Cc2cccc(C(=O)O)c2OB1O)c1cccnc1` [Example 3, (R,E)-2-hydroxy-3-(2-(methoxyimino)-2-(pyridin-3-yl)acetamido)-3,4-dihydro-2H-benzo[e][1,2]oxaborinine-8-carboxylic Acid], the MIC in assay [1] and in assay [2] (setting [3]) was above 128 µg/mL throughout.
For the compound `CNc1nc(/C(=N/OCc2ccccc2)C(=O)N(C)[C@H]2Cc3cccc(C(=O)O)c3OB2O)cs1` [Example 23, (R,Z)-3-(2-((benzyloxy)imino)-N-methyl-2-(2-(methylamino)thiazol-4-yl)acetamido)-2-hydroxy-3,4-dihydro-2H-benzo[e][1,2]oxaborinine-8-carboxylic Acid], the MIC in assay [1] and in assay [2] (setting [3]) was above 128 µg/mL throughout.
Consider `Nc1nc(/C(=N/O)C(=O)N[C@H]2Cc3ccc(CN4CCCC4)c(C(=O)O)c3OB2O)cs1` [Example 25, (R,Z)-3-(2-(2-aminothiazol-4-yl)-2-(hydroxyimino)acetamido)-2-hydroxy-7-(pyrrolidin-1-ylmethyl)-3,4-dihydro-2H-benzo[e][1,2]oxaborinine-8-carboxylic Acid], for which the MIC in assay [1] is above 128 µg/mL; in assay [2] (setting [3]), below 64 µg/mL.

Broadly, the MIC is the least concentration at which growth counts as inhibited.
